# Patent US7507739B2, “6-[(substituted)phenyl]triazolopyrimidines as anticancer agents” (Wyeth, priority 2003, dated 2009)
# Assays:
# [1] = test system: HL-60 cells; experiment: MTS cytotoxicity test with HL-60 cells; assay type: cell-based; details: Homo sapiens; HL-60 cells, MTS; read-out: IC50 HL-60
# [2] = test system: S1-M1 cells; experiment: MTS cytotoxicity test with S1-M1 cells (MXR); assay type: cell-based, human; details: for IC50: Homo sapiens, S1-M1 cells, MTS, read-out: IC50 S1-M1; for Ratio: IC50 on S1-M1 cells/IC50 on S1 cells
# Summary of the method: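 S1 colon carcinoma (LS174T subclone) and MXR-overexpressing S1-M1 cells at 1000/well, dosed after ~24 hr with nine 2-fold dilutions, then cultured three days at 37°. MTS formazan absorbance normalized to a time-0 plate; IC50 taken at half-maximal color yield.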
# [3] = test system: pure tubulin; experiment: Tubulin polymerization test with pure tubulin without GTP; assay type: biochemical, bovine; details: no GTP
# Summary of the method: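 GTP-free polymerization using >99% pure bovine brain tubulin in PEM buffer (pH 6.9); centrifuged supernatant added to compounds. Duplicates at six 3-fold dilutions from 24.3 μM, read at 35°.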
# [4] = test system: tubulin heterodimer; experiment: Competitive binding test, [3H]vinblastine; set-up: species or system bovine; details: [3H]vinblastine 100 nM
# Protocol: Medium is RPMI-1640 with L-glutamine, supplemented with 10% heat-inactivated fetal calf serum, 100 units/ml penicillin, and 100 μg/ml streptomycin (Gibco, Grand Island, N.Y.). Microtubule-associated protein (MAP)-rich tubulin, containing about 70% tubulin and 30% MAPs (#ML113), and highly purified tubulin (>99% pure, #TL238), both from bovine brain, are obtained from Cytoskeleton, Inc., Denver, Colo. PEM buffer (80 mM piperazine-N,N′-bis[2-ethanesulfonic acid], pH 6.9, 1 mM ethylene glycol-bis(β-aminoethyl ether)-N,N,N′,N′-tetraacetic acid, 1 mM magnesium chloride) and guanosine 5′-triphosphate (GTP) are also obtained from Cytoskeleton. [3H]paclitaxel, specific activity 14.7 Ci/mmol, is purchased from Moravek Biochemicals (Brea, Calif.). [^3H]vinblastine, specific activity 9.60 Ci/mmol and MicroSpin G-50 columns are obtained from Amersham Biosciences (Piscataway, N.J.). […] Other reagents are obtained from Sigma (St. Louis, Mo.).
# The binding of examples of this invention to highly purified tubulin is studied by competitive inhibition methods. […] To study possible competition at the taxane site, on the other hand, polymerized tubulin (microtubules) is used because paclitaxel binds preferentially to microtubules.
# Highly purified tubulin is dissolved in PEM buffer without GTP and used at a final concentration of 1.0 to 1.3 mg/ml (10 to 13 μM). […] These solutions are incubated at 24° for 1 hr and then applied to MicroSpin G-50 columns which are centrifuged for 2 min at 3000 rpm in an Eppendorf 5415C microfuge. An aliquot of each column effluent (containing tubulin and bound radioligand) is mixed with scintillation fluid and counted in a liquid scintillation spectrometer. […] The ability of the competitor to inhibit the binding of the radioligand is expressed as a percentage of control binding in the absence of any competitor.
Structure (SMILES),IC50 [1] [nM],IC50 [2] [nM],Ratio [2],A340 at 0 min ([3]; 24.3 μM),A340 at 5 min ([3]; 24.3 μM),A340 at 10 min ([3]; 24.3 μM),A340 at 15 min ([3]; 24.3 μM),A340 at 20 min ([3]; 24.3 μM),"[3H]Vinblastine binding, percent of control without competitor, Mean [4] [%]","absorbance increase, polymerization of pure tubulin ([3]; 2.7 μM)","absorbance increase, polymerization of pure tubulin ([3]; 8.1 μM)","absorbance increase, polymerization of pure tubulin ([3]; 24.3 μM, first 5 min)"
"OCCCOc1cc(F)c(-c2c(Cl)nc3ncnn3c2C2CCCCCC2)c(F)c1 [Example 30, 3-[4-(5-Chloro-7-cycloheptyl[1,2,4]triazolo[1,5-a]pyrimidin-6-yl)-3,5-difluorophenoxy]propan-1-ol]",55,78,1.2,0,0.02,0.01,0.01,0.01,14,,,
"CNCCCOc1cc(F)c(-c2c(Cl)nc3ncnn3c2C2CCCCCC2)c(F)c1.O=C(O)C(F)(F)F [Example 32, 3-[4-(5-Chloro-7-cycloheptyl[1,2,4]triazolo[1,5-a]pyrimidin-6-yl)-3,5-difluorophenoxy]-N-methylpropan-1-amine trifluoroacetic acid salt]",7.1,9,0.80,0,0.26,0.26,0.25,0.25,15,no effect,lower and less rapid increase,rapid increase in absorbance
"CC(=O)O[C@H]1C(=O)[C@@]2(C)[C@H]([C@H](OC(=O)c3ccccc3)[C@]3(O)C[C@H](OC(=O)[C@H](O)[C@@H](NC(=O)c4ccccc4)c4ccccc4)C(C)=C1C3(C)C)[C@]1(OC(C)=O)CO[C@@H]1C[C@@H]2O [Paclitaxel, reference compound]",5.7,4.4,0.54,0,0,0,0.01,0.01,92,,,
"CC[C@]1(O)C[C@H]2CN(CCc3c([nH]c4ccccc34)[C@@](C(=O)OC)(c3cc4c(cc3OC)N(C=O)[C@H]3[C@@](O)(C(=O)OC)[C@H](OC(C)=O)[C@]5(CC)C=CCN6CC[C@]43[C@@H]65)C2)C1 [Vincristine, reference compound]",2.5,4.6,0.82,0,0.01,0.01,0,0,5,,,
